Where two headings read alike, the source gives them in different places. A value given as a limit tells only on which side of the number the result lay.

These results are taken from publication PMC7153038, “Pharmacologic inhibition of RGD‐binding integrins ameliorates fibrosis and improves function following kidney injury” (Physiological Reports, 2020).

The subject of assay [1] is pro-fibrotic gene expression in kidney. Kind of assay: aristolochic acid kidney injury model, kidney qRT-PCR. The class given is in vivo, mouse. Particulars: AA-injured, 100 mg/kg/day s.c. minipump, day 27; vehicle 32-fold. On the procedure:
Alzet osmotic minipumps (Cupertino, CA) were implanted subcutaneously in 8‐ to 10‐week‐old wild‐type male ICR outbred mice (Envigo) one day prior to induction of kidney injury to deliver vehicle (DMSO/H2O 1:1) or CWHM‐12 at a dose of 100 mg/kg per day. A single 5 mg/kg dose of aristolochic acid I sodium salt (Sigma‐Aldrich, A9451) in PBS was administered intraperitoneally to induce kidney injury, and mice were monitored daily for 27 days thereafter. Control (uninjured) mice were injected with an equal volume of PBS. Blood was obtained by maxillary vein puncture on days 0, 5 (peak injury), and 28 (study endpoint). For testing CWHM‐680, oral gavage (100 mg/kg per day) was started one day prior to injection of aristolochic acid I sodium salt and continued once daily until the study endpoint. Blood was obtained at days 0, 7, and 23 (study endpoint). […] Serum creatinine was measured by liquid chromatography–mass spectrometry (LC–MS/MS) at the University of Alabama O’Brien Center Bioanalytical Core. CWHM‐12 and CWHM‐680 concentrations were measured in plasma samples by liquid chromatography–tandem mass spectrometry (LC/MS/MS) using compound spiked into control plasma as a standard. All experiments were performed under protocols approved by the Institutional Animal Care and Use Committee at St. Louis University. […]
(In general: Quantitative PCR measures a nucleic acid by following its amplification.)

The subject of assay [2] is aristolochic acid-induced kidney fibrosis in ICR mice. Kind of assay: aristolochic acid kidney injury model, kidney histology and immunofluorescence. The class given is in vivo, mouse. The note with it: AA-injured, 100 mg/kg/day s.c. minipump. On the procedure:
(§1) Alzet osmotic minipumps (Cupertino, CA) were implanted subcutaneously in 8‐ to 10‐week‐old wild‐type male ICR outbred mice (Envigo) one day prior to induction of kidney injury to deliver vehicle (DMSO/H2O 1:1) or CWHM‐12 at a dose of 100 mg/kg per day. A single 5 mg/kg dose of aristolochic acid I sodium salt (Sigma‐Aldrich, A9451) in PBS was administered intraperitoneally to induce kidney injury, and mice were monitored daily for 27 days thereafter. Control (uninjured) mice were injected with an equal volume of PBS. Blood was obtained by maxillary vein puncture on days 0, 5 (peak injury), and 28 (study endpoint). For testing CWHM‐680, oral gavage (100 mg/kg per day) was started one day prior to injection of aristolochic acid I sodium salt and continued once daily until the study endpoint. Blood was obtained at days 0, 7, and 23 (study endpoint). […] Serum creatinine was measured by liquid chromatography–mass spectrometry (LC–MS/MS) at the University of Alabama O’Brien Center Bioanalytical Core. CWHM‐12 and CWHM‐680 concentrations were measured in plasma samples by liquid chromatography–tandem mass spectrometry (LC/MS/MS) using compound spiked into control plasma as a standard. All experiments were performed under protocols approved by the Institutional Animal Care and Use Committee at St. Louis University.
Harvested kidneys were bisected and harvested for RNA and protein, and fixed in 4% PFA for antibody staining and histological staining with Sirius red or Masson's trichrome. Paraffin sections (4 µm) were stained with Sirius red or Masson trichrome and imaged with polarized light and bright‐field illumination. For immunofluorescence, 7‐μm frozen sections were washed with ice‐cold 100% methanol, boiled in 10 mM citric acid (pH 6) for 20 min, and incubated with primary antibodies against αSMA (Millipore), PDGFR‐β (gift from B. Stallcup), or with biotin‐LTL (Vector Laboratories). Reactivity was detected using fluorescently labeled secondary antibodies. Sections were counterstained with DAPI (Sigma‐Aldrich), mounted in Mowiol 4–88 (Poly Sciences), and digital images acquired using a Leica DM5000B epifluorescence microscope and Leica DFC365FX camera. To quantify percent area stained for Sirius red, PDGFR‐β, and α‐SMA, we analyzed images from each of at least 4 biological replicates by batch processing using a macro created in Image J. Images were converted to 8‐bit grayscale, the threshold adjusted, and percent area measured. To quantify intact proximal tubules with brush borders, LTL‐positive tubules were counted by an observer blinded to the experimental conditions using Image J.

Another assay has as its target integrin αvβ3 (Homo sapiens, UniProt P05106+P06756). Kind of assay: integrin αvβ3-mediated cell attachment to ligand. The assay is classed as cell-based. Particulars: mean and SD, at least 3 independent assays, read-out: IC50, inhibition of αvβ3-mediated cell attachment. On the procedure:
The RGD peptidomimetic CWHM‐12 was synthesized as described in detail previously (Henderson et al., 2013). A close structural analog of this compound with improved oral bioavailability, CWHM‐680, was also synthesized at Saint Louis University. Potency for the compounds in blocking cell attachment mediated by integrins αvβ3, αvβ5, and αvβ6 was measured as previously described (Henderson et al., 2013). Potency for blocking cell attachment mediated by integrins αvβ1, αvβ8, and α8β1 was measured using modifications of this method which are briefly summarized as follows: To assess CWHM‐12 and CWHM‐680 effects on cellular αvβ1 function, we varied its concentration in an assay measuring binding of HEK‐293 cells, which naturally express this integrin (Nagarajan et al., 2007), to the surface of 96‐well plates coated with purified recombinant human TGFβ‐1 latency‐associated peptide (R&D Systems). To assess the effect on cellular αvβ8 function, we performed the assay with the same LAP ligand but with HEK‐293 cells which had been stably transfected to overexpress this integrin. To assess the effect on cellular α8β1 function, we performed the assay using HEK‐293 cells, which had been stably transfected to overexpress this integrin and used purified recombinant mouse nephronectin as the immobilized ligand (R&D Systems). […]

Assay [3] has as its system aristolochic acid-induced kidney injury in ICR mice. Kind of assay: aristolochic acid kidney injury model, serum creatinine. The class given is in vivo, mouse. The note with it: AA-injured mice, 100 mg/kg/day s.c. minipump; vehicle 0.32. On the procedure:
as §1

integrin αvβ3, sequence (P06756 31-889 limits assumed): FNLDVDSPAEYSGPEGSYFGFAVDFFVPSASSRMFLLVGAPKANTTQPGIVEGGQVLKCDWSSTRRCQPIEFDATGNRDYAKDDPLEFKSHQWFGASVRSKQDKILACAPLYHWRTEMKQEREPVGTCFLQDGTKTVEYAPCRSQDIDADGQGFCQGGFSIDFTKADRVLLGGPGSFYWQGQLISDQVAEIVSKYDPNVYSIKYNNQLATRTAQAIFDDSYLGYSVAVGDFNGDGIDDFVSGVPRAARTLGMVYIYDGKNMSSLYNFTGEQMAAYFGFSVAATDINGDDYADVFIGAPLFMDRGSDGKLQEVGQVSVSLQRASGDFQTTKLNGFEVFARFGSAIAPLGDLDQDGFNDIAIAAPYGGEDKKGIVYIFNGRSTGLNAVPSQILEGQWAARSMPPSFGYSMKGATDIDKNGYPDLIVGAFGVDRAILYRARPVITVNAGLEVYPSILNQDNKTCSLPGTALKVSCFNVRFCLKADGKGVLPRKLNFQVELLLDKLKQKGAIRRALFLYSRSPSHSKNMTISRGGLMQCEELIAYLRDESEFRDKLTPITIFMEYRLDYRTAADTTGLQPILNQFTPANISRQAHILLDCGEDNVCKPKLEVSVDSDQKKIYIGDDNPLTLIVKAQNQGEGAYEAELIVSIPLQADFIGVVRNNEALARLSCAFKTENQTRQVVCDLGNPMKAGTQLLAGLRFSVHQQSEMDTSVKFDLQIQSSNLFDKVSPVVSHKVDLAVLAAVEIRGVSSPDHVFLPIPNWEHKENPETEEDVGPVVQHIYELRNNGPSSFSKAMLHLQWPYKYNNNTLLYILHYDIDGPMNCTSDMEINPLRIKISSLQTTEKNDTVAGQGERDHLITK
integrin αvβ3, sequence (P06756 891-1048 partner limits assumed): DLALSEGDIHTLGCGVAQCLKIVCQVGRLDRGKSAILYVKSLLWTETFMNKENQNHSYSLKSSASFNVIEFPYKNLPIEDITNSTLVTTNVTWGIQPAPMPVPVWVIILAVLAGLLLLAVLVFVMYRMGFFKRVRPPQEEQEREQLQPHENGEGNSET
integrin αvβ3, sequence (P05106 27-788): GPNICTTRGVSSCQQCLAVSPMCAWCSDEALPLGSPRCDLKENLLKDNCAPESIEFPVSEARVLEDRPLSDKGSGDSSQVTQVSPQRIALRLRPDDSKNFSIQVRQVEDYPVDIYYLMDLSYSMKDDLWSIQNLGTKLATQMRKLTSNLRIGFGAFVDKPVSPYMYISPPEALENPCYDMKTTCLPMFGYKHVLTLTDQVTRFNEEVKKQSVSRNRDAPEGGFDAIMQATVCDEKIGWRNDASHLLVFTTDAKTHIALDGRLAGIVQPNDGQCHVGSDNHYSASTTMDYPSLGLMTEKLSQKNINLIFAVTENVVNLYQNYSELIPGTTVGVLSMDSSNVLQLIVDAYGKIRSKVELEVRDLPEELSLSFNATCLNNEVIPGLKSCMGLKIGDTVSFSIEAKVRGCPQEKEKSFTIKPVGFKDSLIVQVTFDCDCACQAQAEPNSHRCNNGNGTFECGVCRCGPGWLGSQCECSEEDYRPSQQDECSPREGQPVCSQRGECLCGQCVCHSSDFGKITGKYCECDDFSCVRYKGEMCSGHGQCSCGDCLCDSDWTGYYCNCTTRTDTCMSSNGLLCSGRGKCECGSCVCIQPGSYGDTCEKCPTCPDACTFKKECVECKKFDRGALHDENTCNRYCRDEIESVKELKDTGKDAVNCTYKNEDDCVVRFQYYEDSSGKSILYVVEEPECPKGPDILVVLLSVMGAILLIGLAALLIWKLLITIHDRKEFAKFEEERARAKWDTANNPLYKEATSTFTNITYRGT

As for `CC(C)(C)c1cc(Br)cc([C@H](CC(=O)O)NC(=O)CNC(=O)c2cc(O)cc(NC3=NCC(O)CN3)c2)c1` (stereo partly drawn) [CWHM‐12], the “Col1a1 mRNA expression increase by qRT-PCR compared with uninjured animals” value in assay [1] was 9 fold. Besides, in assay [2], the “Masson trichrome staining, collagen deposition vs vehicle” value is “reduced collagen deposition”; the “reduction in percent area stained for PDGFR‐β vs vehicle” value was 44%; the “reduction in percent area stained for αSMA vs vehicle” value came out at 45%. The “reduction in percent area stained by Sirius red vs vehicle” value in assay [2] (day 27) is 68%. In assay [2] (27 days, vehicle 40.9 ± 1.6), the “number of intact proximal tubules (LTL staining)” value was determined as 57.1 ± 1.7. Moreover, on integrin αvβ3 (listed as CWHM−12), the IC50 amounted to 0.47 ± 0.45 nM. The IC50 at integrin αvβ3 was under 1 nM. The “serum creatinine at day 27” value in assay [3] came out at 0.15 mg/dL.

Usually IC50 stands for the concentration that inhibits the measured activity by half.
